Measurements taken from patent publication US10981926B2 (Janssen Pharmaceutica NV, priority 2016, dated 2021).

Assays:
[1] = target: T1, wild-type Androgen Receptor (AR-wt) (Homo sapiens (Human), UniProt P10275); assay: LNCaP-AR-wt ANT reporter assay (antagonist mode); format: cell-based; conditions: for IC50 / LNCaP-AR-wt ANT pIC50: antagonist mode, pIC50 = −Log10(IC50 in Molar); for IC50: read-out: LNCaP-AR-wt ANT pIC50 (converted); for Emax: read-out: LNCaP-AR-wt ANT MAX % Inh
[2] = target: T1, wild-type Androgen Receptor (AR-wt); assay: LNCaP-AR-wt AG reporter assay (agonist mode); format: cell-based; conditions: for EC50 / LNCaP-AR-wt AG pEC50: agonist mode, pEC50 = −Log10(EC50 in Molar); for EC50: read-out: LNCaP-AR-wt AG pEC50 (converted); for Emax: read-out: LNCaP-AR-wt AG MAX % Stim
[3] = target: T2, F876L mutant Androgen Receptor (AR-F876L) (Homo sapiens (Human), UniProt P10275, F877L); assay: LNCaP-AR-F876L ANT reporter assay (antagonist mode); format: cell-based; conditions: for IC50 / LNCaP-AR-F876L ANT pIC50: antagonist mode, pIC50 = −Log10(IC50 in Molar); for IC50: read-out: LNCaP-AR-F876L ANT pIC50 (converted); for Emax: read-out: LNCaP-AR-F876L ANT MAX % Inh
T2 sequence (P10275 whole entry F877L): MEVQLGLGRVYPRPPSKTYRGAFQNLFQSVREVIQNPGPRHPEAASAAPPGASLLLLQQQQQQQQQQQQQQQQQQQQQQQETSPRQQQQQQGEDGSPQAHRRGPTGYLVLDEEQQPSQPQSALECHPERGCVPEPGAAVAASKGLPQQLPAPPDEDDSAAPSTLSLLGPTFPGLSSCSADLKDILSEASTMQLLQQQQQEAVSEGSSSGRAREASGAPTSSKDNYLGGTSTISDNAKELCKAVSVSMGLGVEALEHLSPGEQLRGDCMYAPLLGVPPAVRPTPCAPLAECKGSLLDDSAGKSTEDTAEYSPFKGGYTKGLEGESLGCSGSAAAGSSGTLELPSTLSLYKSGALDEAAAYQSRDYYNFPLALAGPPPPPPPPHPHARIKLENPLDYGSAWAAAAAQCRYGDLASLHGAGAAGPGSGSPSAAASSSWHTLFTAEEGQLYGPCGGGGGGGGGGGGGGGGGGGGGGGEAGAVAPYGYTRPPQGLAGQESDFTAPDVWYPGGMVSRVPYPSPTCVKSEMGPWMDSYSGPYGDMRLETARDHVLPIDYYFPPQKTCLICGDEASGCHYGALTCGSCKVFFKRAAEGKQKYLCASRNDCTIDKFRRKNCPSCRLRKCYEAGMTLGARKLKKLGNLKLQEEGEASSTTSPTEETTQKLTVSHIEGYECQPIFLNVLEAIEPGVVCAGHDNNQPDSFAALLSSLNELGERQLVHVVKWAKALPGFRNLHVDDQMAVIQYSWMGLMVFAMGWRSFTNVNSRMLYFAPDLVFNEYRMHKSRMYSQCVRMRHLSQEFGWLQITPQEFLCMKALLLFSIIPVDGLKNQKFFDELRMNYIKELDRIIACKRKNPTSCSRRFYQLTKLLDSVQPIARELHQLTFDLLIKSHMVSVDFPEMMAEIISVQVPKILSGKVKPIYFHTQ

[4] = target: T2, F876L mutant Androgen Receptor (AR-F876L); assay: LNCaP-AR-F876L AG reporter assay (agonist mode); format: cell-based; conditions: for EC50 / LNCaP-AR-F876L AG pEC50: agonist mode, pEC50 = −Log10(EC50 in Molar); for EC50: read-out: LNCaP-AR-F876L AG pEC50 (converted); for Emax: read-out: LNCaP-AR-F876L AG MAX % Stim
rGABA-gated Cl− channel = assay: GABA-Gated Cl Channel Antagonist Radioligand Binding Assay; parameters: species or system rat; conditions: 10 μM single point, [35S]-TBPS, cerebral cortex membrane homogenates
Procedure, shortened: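 Rat cerebral cortex membranes (120 μg protein) incubated 120 min at 22° C with 3 nM […] in 50 mM Na2HPO4/KH2PO4 pH 7.4, 500 mM NaCl; nonspecific binding defined with 20 μM picrotoxinin. Bound label counted after filtration; values are percent inhibition of specific binding at 10 μM compound.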

[5] = maximum % inhibition of R1881 control response over the tested concentration range
[6] = maximum % stimulation (agonist response) over the tested concentration range

T1 sequence (P10275 whole entry): as the sequence (P10275 whole entry F877L) above, with L877F counted along it

Row | SMILES | IC50 [1] [nM] | Emax [1, 5] [%] | EC50 [2] [nM] | Emax [2, 6] [%] | IC50 [3] [nM] | Emax [3, 5] [%] | EC50 [4] [nM] | Emax [4, 6] [%] | rGABA-gated Cl− channel % inh @10 μM (rGABA-gated Cl− channel) [%] | LNCaP-AR-wt ANT pIC50 [1] | LNCaP-AR-F876L ANT pIC50 [3] | LNCaP-AR-wt ANT MAX % Inh [1, 5] [%] | LNCaP-AR-wt AG pEC50 [2] | LNCaP-AR-wt AG MAX % Stim [2, 6] [%] | LNCaP-AR-F876L ANT MAX % Inh [3, 5] [%] | LNCaP-AR-F876L AG pEC50 [4] | LNCaP-AR-F876L AG MAX % Stim [4, 6] [%]
1 | N#Cc1ncc(N2C(=O)C3(CCC3)N(c3ccc(OCCN4CC5(C4)CC(F)(F)C5)cc3)C2=S)cc1C(F)(F)F [Cpd 83, 5-[8-[4-[2-(2,2-difluoro-6-azaspiro[3.3]heptan-6-yl)ethoxy]phenyl]-5-oxo-7-thioxo-6,8-diazaspiro[3.4]octan-6-yl]-3-(trifluoromethyl)pyridine-2-carbonitrile] | 229 | 102 | > 15100 | -0.2 | 129 | 99 | > 15100 | 0.2 | 20.5 |  |  |  |  |  |  |  | 
2 | CN1CC(Oc2ccc(N3C(=S)N(c4cnc(C#N)c(C(F)(F)F)c4)C(=O)C34CCC4)cc2)C1 [Cpd 84, 5-[8-[4-(1-methylazetidin-3-yl)oxyphenyl]-5-oxo-7-thioxo-6,8-diazaspiro[3.4]octan-6-yl]-3-(trifluoromethyl)pyridine-2-carbonitrile] | 525 | 101 | > 15100 | 0.2 | 81.3 | 101 | > 15100 | 0.1 | 21.9 |  |  |  |  |  |  |  | 
3 | N#Cc1ncc(N2C(=O)C3(CCC3)N(c3ccc(OC4CC5(CNC5)C4)cc3)C2=S)cc1C(F)(F)F [Cpd 86, 5-[8-[4-(6-azaspiro[3.3]heptan-2-yloxy)phenyl]-5-oxo-7-thioxo-6,8-diazaspiro[3.4]octan-6-yl]-3-(trifluoromethyl)pyridine-2-carbonitrile] | 123 | 100 | > 15100 | 0 | 75.9 | 99.7 | > 15100 | 0.1 | 15.3 |  |  |  |  |  |  |  | 
4 | Cc1cc(N2C(=O)C3(CCC3)N(c3ccc(OC4CCNCC4)nc3)C2=S)cnc1C#N [Cpd 87, 3-methyl-5-[5-oxo-8-[6-(4-piperidyloxy)-3-pyridyl]-7-thioxo-6,8-diazaspiro[3.4]octan-6-yl]pyridine-2-carbonitrile] |  | 101 | > 15100 | 0.1 |  | 100 | > 15100 | 0.1 | −14.8 | 6.92 | 7.09 |  |  |  |  |  | 
5 | C=CCN1CCC(Oc2ccc(N3C(=S)N(c4cnc(C#N)c(C(F)(F)F)c4)C(=O)C34CCC4)cn2)CC1 [Cpd 88, 5-[8-[6-[(1-allyl-4-piperidyl)oxy]-3-pyridyl]-5-oxo-7-thioxo-6,8-diazaspiro[3.4]octan-6-yl]-3-(trifluoromethyl)pyridine-2-carbonitrile] | 74.1 | 102 | > 15100 | 0.4 | 33.1 | 99.5 | > 15100 | 0.4 | 49.7 |  |  |  |  |  |  |  | 
6 | Cc1cc(N2C(=O)C3(CCC3)N(c3ccc(OC4CCN(CC#N)CC4)nc3)C2=S)cnc1C#N [Cpd 90, 5-[8-[6-[[1-(cyanomethyl)-4-piperidyl]oxy]-3-pyridyl]-5-oxo-7-thioxo-6,8-diazaspiro[3.4]octan-6-yl]-3-methyl-pyridine-2-carbonitrile] | 89.1 | 99.7 | > 15100 | 0.6 | 67.6 | 99.3 | > 15100 | 0.9 | 20.8 |  |  |  |  |  |  |  | 
7 | CC1COC(COc2ccc(N3C(=S)N(c4cnc(C#N)c(C(F)(F)F)c4)C(=O)C34CCC4)cc2)CN1 [Cpd 91, (R,S),(R,S)-5-[8-[4-[(5-methylmorpholin-2-yl)methoxy]phenyl]-5-oxo-7-thioxo-6,8-diazaspiro[3.4]octan-6-yl]-3-(trifluoromethyl)pyridine-2-carbonitrile] |  |  |  |  |  |  |  |  | 36.7 | 7.33 | 7.49 | 98.3 | <4.82 | 0.6 | 98.6 | <4.82 | 0.4
8 | N#Cc1ncc(N2C(=O)C3(CCC3)N(c3ccc(OC4CC5CCC(N5)C4F)cc3)C2=S)cc1C(F)(F)F (stereo not drawn) [Cpd 93, 5-[8-[4-[(4-fluoro-8-azabicyclo[3.2.1]octan-3-yl)oxy]phenyl]-5-oxo-7-thioxo-6,8-diazaspiro[3.4]octan-6-yl]-3-(trifluoromethyl)pyridine-2-carbonitrile] |  | 105 |  | 0.5 | 45.7 | 102 |  | 0.2 | 74.4 | 6.77 |  |  | <4.82 |  |  | <4.82 | 
9 | CN1C2CCC1C(F)C(Oc1ccc(N3C(=S)N(c4cnc(C#N)c(C(F)(F)F)c4)C(=O)C34CCC4)cc1)C2 (stereo not drawn) [Cpd 94, 5-[8-[4-[(4-fluoro-8-methyl-8-azabicyclo[3.2.1]octan-3-yl)oxy]phenyl]-5-oxo-7-thioxo-6,8-diazaspiro[3.4]octan-6-yl]-3-(trifluoromethyl)pyridine-2-carbonitrile] |  | 101 |  | 0.8 | 70.8 | 101 |  | 0.2 | 91.0 | 6.78 |  |  | <4.82 |  |  | <4.82 | 
10 | CN1CC2(CC(Oc3ccc(N4C(=S)N(c5cnc(C#N)c(C(F)(F)F)c5)C(=O)C45CCC5)cc3)C2)C1 [Cpd 97, 5-[8-[4-[(6-methyl-6-azaspiro[3.3]heptan-2-yl)oxy]phenyl]-5-oxo-7-thioxo-6,8-diazaspiro[3.4]octan-6-yl]-3-(trifluoromethyl)pyridine-2-carbonitrile] | 55 | 102 | > 15100 | 0 | 25.1 | 99.9 | > 15100 | 0.2 | 4.0 |  |  |  |  |  |  |  | 
11 | COCCN1CCC(Oc2ccc(N3C(=S)N(c4cnc(C#N)c(C)c4)C(=O)C34CCC4)cn2)CC1 [Cpd 98, 5-[8-[6-[[1-(2-methoxyethyl)-4-piperidyl]oxy]-3-pyridyl]-5-oxo-7-thioxo-6,8-diazaspiro[3.4]octan-6-yl]-3-methyl-pyridine-2-carbonitrile] | 46.8 | 101 | > 15100 | 0.3 | 20.9 | 100 | > 15100 | 0.1 | −7.6 |  |  |  |  |  |  |  | 
12 | Cc1cc(N2C(=O)C3(CCC3)N(c3ccc(OC4CCN(CCO)CC4)nc3)C2=S)cnc1C#N [Cpd 100, 5-[8-[6-[[1-(2-hydroxyethyl)-4-piperidyl]oxy]-3-pyridyl]-5-oxo-7-thioxo-6,8-diazaspiro[3.4]octan-6-yl]-3-methyl-pyridine-2-carbonitrile] | 162 | 100 | > 15100 | 0.1 | 58.9 | 98.9 | > 15100 | 0.5 | 2.3 |  |  |  |  |  |  |  | 
13 | C#CCN1CCC(Oc2ccc(N3C(=S)N(c4cnc(C#N)c(C(F)(F)F)c4)C(=O)C34CCC4)cn2)CC1 [Cpd 104, 5-[5-oxo-8-[6-[(1-prop-2-ynyl-4-piperidyl)oxy]-3-pyridyl]-7-thioxo-6,8-diazaspiro[3.4]octan-6-yl]-3-(trifluoromethyl)pyridine-2-carbonitrile] | 69.2 | 101 | > 15100 | 0.5 | 41.7 | 99.6 | > 15100 | 0.7 | 98.9 |  |  |  |  |  |  |  | 
14 | N#Cc1ncc(N2C(=O)C3(CCC3)N(c3ccc(OCCN4CC5(COC5)C4)cc3)C2=S)cc1C(F)(F)F [Cpd 105, 5-[8-[4-[2-(6-oxa-2-azaspiro[3.3]heptan-2-yl)ethoxy]phenyl]-5-oxo-7-thioxo-6,8-diazaspiro[3.4]octan-6-yl]-3-(trifluoromethyl)pyridine-2-carbonitrile] | 123 | 100 | > 15100 | 0.1 | 66.1 | 97.6 | > 15100 | 0.8 | 23.9 |  |  |  |  |  |  |  | 
